Molecules are shown by their SMILES.

In the first experiment the target is T1, Human complement C1s enzyme (Homo sapiens, UniProt P09871).
T1 construct: purified from human serum, Complement Technology, Inc; purchased Complement Technology, Inc; host or cells: human serum (plasma-derived natural protein)
T1 sequence (P09871 438-688 limits assumed): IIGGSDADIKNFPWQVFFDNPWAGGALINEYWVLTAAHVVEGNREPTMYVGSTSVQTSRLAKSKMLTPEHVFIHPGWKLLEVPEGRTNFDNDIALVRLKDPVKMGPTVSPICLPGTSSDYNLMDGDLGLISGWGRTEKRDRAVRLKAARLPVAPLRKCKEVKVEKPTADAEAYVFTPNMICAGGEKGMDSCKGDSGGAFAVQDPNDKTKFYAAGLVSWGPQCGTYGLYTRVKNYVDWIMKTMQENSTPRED
T1 sequence (P09871 16-437 partner limits assumed): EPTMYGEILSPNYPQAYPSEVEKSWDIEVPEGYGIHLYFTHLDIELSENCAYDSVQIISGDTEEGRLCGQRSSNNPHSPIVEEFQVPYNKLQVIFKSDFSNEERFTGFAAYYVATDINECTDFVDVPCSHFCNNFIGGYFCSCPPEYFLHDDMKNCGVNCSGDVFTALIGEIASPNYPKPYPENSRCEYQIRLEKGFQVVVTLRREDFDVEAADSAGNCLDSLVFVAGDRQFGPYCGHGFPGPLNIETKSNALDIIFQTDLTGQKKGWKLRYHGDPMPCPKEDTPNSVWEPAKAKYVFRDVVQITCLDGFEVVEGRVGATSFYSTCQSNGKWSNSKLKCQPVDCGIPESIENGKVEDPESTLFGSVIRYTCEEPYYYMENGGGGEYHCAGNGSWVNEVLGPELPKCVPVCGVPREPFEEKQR
Put plainly: Human C1s Enzyme Assay. The experiment is classed as biochemical. The following applies: Table 1; C1s purified from human serum, 1.16 nM; substrate Z-L-Lys-SBzl; read-out: C1s Protease Activity. The procedure:
Example 4. Human C1s Enzyme Assay
Human complement C1s enzyme (purified from human serum, Complement Technology, Inc.) at 1.16 nM final concentration is incubated with test compound at various concentrations for 5 min at room temperature in 50 mM Tris, 1 M NaCl, pH 7.5. A synthetic substrate Z-L-Lys-SBzl and DTNB (Ellman's reagent) are added to final concentrations of 100 μM each. Absorbance at 405 nm (A405) is recorded at 30 second intervals for 30 min using a microplate spectrophotometer. IC50 values are calculated by nonlinear regression of complement C1s reaction rates as a function of test compound concentration.
Regarding `N=C(N)NCCC[C@H](NC(=O)[C@@H]1CC2(CN1C(=O)CNC(=O)c1ccc(Oc3ccccc3)cc1)OCCO2)C(N)=O` [Compound 22, N-{2-[(8S)-8-{[(1S)-4-Carbamimidamido-1-carbamoylbutyl]carbamoyl}-1,4-dioxa-7-azaspiro[4.4]nonan-7-yl]-2-oxoethyl}-4-phenoxybenzamide], the IC50 was over 1 µM.

As for `N=C(N)c1csc(CNC(=O)[C@@H]2C[C@@H](O)CN2C(=O)CNC(=O)c2ccc(Oc3ccccc3)cc2)c1` [Compound 31, (2S,4R)—N-[(4-carbamimidoylthiophen-2-yl)methyl]-4-hydroxy-1-{2-[(4-phenoxyphenyl)formamido]acetyl}pyrrolidine-2-carboxamide], the IC50 was under 0.1 µM.

Regarding `CC(=O)Nc1ccc(CNC(=O)[C@@H]2CC3(CN2C(=O)CNC(=O)c2ccc(Oc4ccccc4)cc2)OCCO3)cc1` [Compound 21, (8S)—N-[(4-Acetamidophenyl)methyl]-7-{2-[(4-phenoxyphenyl)formamido]acetyl}-1,4-dioxa-7-azaspiro[4.4]nonane-8-carboxamide], the IC50 is over 1 µM.

In the case of `N=C(N)c1csc(CNC(=O)[C@@H]2CC3(CCCCC3)CN2C(=O)CNC(=O)c2ccc(Oc3ccccc3)cc2)c1` [Compound 13, (3S)—N-[(4-Carbamimidoylthiophen-2-yl)methyl]-2-{2-[(4-phenoxyphenyl)formamido]acetyl}-2-azaspiro[4.5]decane-3-carboxamide], the IC50 was over 1 µM.

`NCCCCNC(=O)[C@@H]1CC2(CN1C(=O)CNC(=O)c1ccc(Oc3ccccc3)cc1)OCCO2` [Compound 25, (8S)—N-(4-Aminobutyl)-7-{2-[(4-phenoxyphenyl)formamido]acetyl}-1,4-dioxa-7-azaspiro[4.4]nonane-8-carboxamide]: the IC50 was over 1 µM.

The same experiment, now with this note: Table 2; C1s purified from human serum, 1.16 nM; substrate Z-L-Lys-SBzl; read-out: C1s Protease Activity.
`CC(N)c1csc(CNC(=O)[C@@H]2CCCN2C(=O)CNC(=O)c2ccc(Oc3ccccc3)cc2)c1` (stereo partly drawn) [Compound 60, (2S)-N-((4-(1-aminoethyl)thiophen-2-yl)methyl)-1-((4-phenoxybenzoyl)glycyl)pyrrolidine-2-carboxamide]: the IC50 is over 1 µM.

On to `N=C(N)c1csc(CNC(=O)[C@@H]2CCCN2C(=O)CNC(=O)CCCCCc2ccccc2)c1` [Compound 81, (S)-N-((4-carbamimidoylthiophen-2-yl)methyl)-1-((6-phenylhexanoyl)glycyl)pyrrolidine-2-carboxamide], for which the IC50 was under 0.1 µM.

In the case of `CCCCCCc1ccc(C(=O)NCC(=O)N2CCC[C@H]2C(=O)NCc2cc(C(=N)N)cs2)cc1` [Compound 75, (S)-N-((4-carbamimidoylthiophen-2-yl)methyl)-1-((4-hexylbenzoyl)glycyl)pyrrolidine-2-carboxamide], the IC50 was under 0.1 µM.

For the compound `N=C(N)c1csc(CNC(=O)[C@@H]2CCCN2C(=O)NNC(=O)c2ccc(Oc3ccccc3)cc2)c1` [Compound 59, (S)-N-((4-carbamimidoylthiophen-2-yl)methyl)-1-(2-(4-phenoxybenzoyl)hydrazine-1-carbonyl)pyrrolidine-2-carboxamide], the IC50 lay in the range of 0.1 to 1 µM.

Regarding `CCCCCOc1ccc(C(=O)NCC(=O)N2CCC[C@H]2C(=O)NCc2cc(C(=N)N)cs2)cc1` [Compound 79, (S)-N-((4-carbamimidoylthiophen-2-yl)methyl)-1-((4-(pentyloxy)benzoyl)glycyl)pyrrolidine-2-carboxamide], the IC50 was under 0.1 µM.

For the compound `Cc1cc(C(=O)NCC(=O)N2CC3(C[C@H]2C(=O)NCc2nc(C(=N)N)co2)OCCO3)ccc1Oc1ccccc1` [Compound 51, (S)-N-((4-carbamimidoyloxazol-2-yl)methyl)-7-((3-methyl-4-phenoxybenzoyl)glycyl)-1,4-dioxa-7-azaspiro[4.4]nonane-8-carboxamide], the IC50 is under 0.1 µM.

Take `CCCCCc1ccc(C(=O)NCC(=O)N2CCC[C@H]2C(=O)NCc2cc(C(=N)N)cs2)cc1` [Compound 74, (S)-N-((4-carbamimidoylthiophen-2-yl)methyl)-1-((4-pentylbenzoyl)glycyl)pyrrolidine-2-carboxamide]: the IC50 is under 0.1 µM.

On to `CN(C)CCCCCC(=O)NCC(=O)N1CCC[C@H]1C(=O)NCc1cc(C(=N)N)cs1` [Compound 71, (S)-N-((4-carbamimidoylthiophen-2-yl)methyl)-1-((6-(dimethylamino)hexanoyl)glycyl)pyrrolidine-2-carboxamide], for which the IC50 was over 1 µM.

As to `CC(C)(c1ccccc1)c1ccc(C(=O)NCC(=O)N2CCC[C@H]2C(=O)NCc2cc(C(=N)N)cs2)cc1` [Compound 57, (S)-N-((4-carbamimidoylthiophen-2-yl)methyl)-1-((4-(2-phenylpropan-2-yl)benzoyl)glycyl)pyrrolidine-2-carboxamide], the IC50 is under 0.1 µM.

On to `CC(c1ccccc1)c1ccc(C(=O)NCC(=O)N2CCC[C@H]2C(=O)NCc2cc(C(=N)N)cs2)cc1` (stereo partly drawn) [Compound 58, (2S)-N-((4-carbamimidoylthiophen-2-yl)methyl)-1-((4-(1-phenylethyl)benzoyl)glycyl)pyrrolidine-2-carboxamide], for which the IC50 was under 0.1 µM.

`Cc1cc(C(=O)NCC(=O)N2[C@H]3C[C@@]3(C)C[C@H]2C(=O)NCc2cc(C(=N)N)cs2)ccc1Oc1ccccc1` [Compound 48, (1S,3S,5S)-N-((4-carbamimidoylthiophen-2-yl)methyl)-5-methyl-2-((3-methyl-4-phenoxybenzoyl)glycyl)-2-azabicyclo[3.1.0]hexane-3-carboxamide]: the IC50 is under 0.1 µM.

`C[C@H](OCc1ccccc1)[C@H](OCc1ccccc1)[C@@H](OCc1ccccc1)[C@H](CN(CC(=O)N1CC2(C[C@H]1C(=O)NCc1cc(C(=N)N)cs1)OCCO2)C(=O)OCc1ccccc1)OCc1ccccc1` [Compound 87, benzyl (2-((S)-8-(((4-carbamimidoylthiophen-2-yl)methyl)carbamoyl)-1,4-dioxa-7-azaspiro[4.4]nonan-7-yl)-2-oxoethyl)((2S,3S,4S,5S)-2,3,4,5-tetrakis(benzyloxy)hexyl)carbamate]: the IC50 is over 1 µM.

Staying with this experiment, now noted: Table 3; C1s purified from human serum, 1.16 nM; substrate Z-L-Lys-SBzl; read-out: C1s Protease Activity.
Turning to `N=C(N)c1csc(CNC(=O)[C@@H]2C[C@@H](C(F)(F)F)CN2C(=O)CNC(=O)c2ccc(Oc3ccccc3)cc2)c1` [Compound 98, (2S,4R)-N-((4-carbamimidoylthiophen-2-yl)methyl)-1-((4-phenoxybenzoyl)glycyl)-4-(trifluoromethyl)pyrrolidine-2-carboxamide], the IC50 is under 0.1 µM.

`C[C@@]12C[C@@H]1N(C(=O)CNC(=O)c1ccc(Oc3ccccc3)cc1)[C@H](C(=O)NCc1cc(/C(N)=N/O)cs1)C2` [Compound 94, (1S,3S,5S)-N-((4-((Z)-N′-hydroxycarbamimidoyl)thiophen-2-yl)methyl)-5-methyl-2-((4-phenoxybenzoyl)glycyl)-2-azabicyclo[3.1.0]heptane-3-carboxamide]: the IC50 was over 1 µM.

In the case of `C[C@@]12C[C@@H]1N(C(=O)CNC(=O)c1ccc(Oc3ccc(S(F)(F)(F)(F)F)cc3)cc1)[C@H](C(=O)NCc1cc(C(=N)N)cs1)C2` [Compound 95, (1S,3S,5S)-N-((4-carbamimidoylthiophen-2-yl)methyl)-5-methyl-2-((4-(4-(pentafluoro-16-sulfaneyl)phenoxy)benzoyl)glycyl)-2-azabicyclo[3.1.0]hexane-3-carboxamide], the IC50 is under 0.1 µM.

These data come from patent publication US12479856B2, “Pharmaceutical compounds for the treatment of complement mediated disorders” (Achillion Pharmaceuticals, Inc., priority 2019, dated 2025).
